Measurements published in patent US9809573B2, “Substituted pyridine derivatives useful as GSK-3 inhibitors” (priority 2013, dated 2017).
Where two headings read alike, the source gives them in different places.

Experiments:
[1] = target: GSK3β (Homo sapiens, UniProt P49841); test: GSK3β kinase assay (Caliper LabChip3000, fluoresceinated peptide substrate); assay type: biochemical
Description: (§1) The kinase assay was performed in V-bottom 384-well plates. […] The reaction was incubated at room temperature for 20 hours and terminated by adding 45 μl of 35 mM EDTA to each sample. The reaction mixture was analyzed on the Caliper LabChip3000 (Caliper, Hopkinton, Mass.) by electrophoretic separation of the unphosphorylated substrate and phosphorylated product. […] Compounds were dissolved at 10 mM in dimethylsulfoxide (DMSO) and evaluated at eleven concentrations. IC50 values were derived by non-linear regression analysis.

[2] = target: GSK3α (Homo sapiens, UniProt P49840); test: biochemical
Sequence of GSK3α (P49840 whole entry, species assumed): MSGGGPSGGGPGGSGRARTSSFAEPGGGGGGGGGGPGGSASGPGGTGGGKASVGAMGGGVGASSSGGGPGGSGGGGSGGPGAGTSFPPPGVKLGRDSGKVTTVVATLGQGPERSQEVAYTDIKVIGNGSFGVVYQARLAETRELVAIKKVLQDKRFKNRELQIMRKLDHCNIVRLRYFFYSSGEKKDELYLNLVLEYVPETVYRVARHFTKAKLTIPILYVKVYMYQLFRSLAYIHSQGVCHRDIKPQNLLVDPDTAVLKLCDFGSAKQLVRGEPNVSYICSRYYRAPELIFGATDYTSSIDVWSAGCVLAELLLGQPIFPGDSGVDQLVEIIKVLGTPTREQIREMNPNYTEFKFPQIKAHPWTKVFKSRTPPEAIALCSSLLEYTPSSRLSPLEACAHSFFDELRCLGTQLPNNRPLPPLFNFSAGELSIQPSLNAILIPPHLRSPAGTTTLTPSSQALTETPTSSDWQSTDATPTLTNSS
Description: as §1

[3] = system: pTau; test: pTau assay (method not described); assay type: cell-based
[4] = second value of the cell, 250 pM enzyme, 20 uM ATP, 20 hours at room temperature, read-out: GSK3β/α (nM): GSK3α IC50
[5] = first value of the cell, 250 pM enzyme, 20 uM ATP, 20 hours at room temperature, read-out: GSK3β/α (nM): GSK3β IC50

Sequence of GSK3β (P49841 whole entry, species assumed): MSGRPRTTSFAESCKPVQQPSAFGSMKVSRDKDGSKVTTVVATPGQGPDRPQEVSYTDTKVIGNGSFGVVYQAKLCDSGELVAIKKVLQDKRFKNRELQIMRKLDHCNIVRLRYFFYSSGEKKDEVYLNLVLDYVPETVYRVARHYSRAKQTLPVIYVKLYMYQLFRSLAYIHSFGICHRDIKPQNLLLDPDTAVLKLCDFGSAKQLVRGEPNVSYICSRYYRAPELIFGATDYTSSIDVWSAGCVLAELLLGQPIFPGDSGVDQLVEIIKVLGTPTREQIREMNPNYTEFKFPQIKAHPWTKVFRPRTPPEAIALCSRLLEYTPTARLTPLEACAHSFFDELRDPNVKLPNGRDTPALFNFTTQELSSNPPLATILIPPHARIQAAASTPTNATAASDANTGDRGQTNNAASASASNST

For `CC1(C)CC(C(=O)Nc2cc(C(=O)Nc3cnccc3-c3ccccc3)ccn2)C1` [Example 217, 2-(3,3-Dimethylcyclobutanecarboxamido)-N-(4-phenylpyridin-3-yl)isonicotinamide], the IC50 [1] was 1.7 nM, the IC50 [2, 4] was 3.2 nM and the IC50 ([3]; read-out: pTau) was 170 nM.
`COc1ccnc(-c2ccccc2)c1NC(=O)c1ccnc(NC(=O)C2CC2)c1` [Example 62, 2-(Cyclopropanecarboxamido)-N-(4-methoxy-2-phenylpyridin-3-yl)isonicotinamide] showed an IC50 [1, 5] of 2.6 nM, an IC50 [2, 4] of 4.8 nM and an IC50 ([3]; read-out: pTau) of 310 nM.
In the case of `O=C(Nc1cncc(C2CCC2)c1)c1ccnc(NC(=O)C2CC2)c1` [Example 113, N-(5-cyclobutylpyridin-3-yl)-2-(cyclopropanecarboxamido)isonicotinamide], the IC50 [1] is reported as 1 nM, the IC50 [2, 4] is reported as 1.75 nM and the IC50 ([3]; read-out: pTau) is reported as 330 nM.
Work on `O=C(Nc1cnccc1N1CCCCC1)c1ccnc(NC(=O)C2CC2)c1` [Example 50, 2-(Cyclopropanecarboxamido)-N-(4-(piperidin-1-yl)pyridin-3-yl)isonicotinamide] yielded an IC50 [1] of 0.99 nM, an IC50 [2, 4] of 0.35 nM and an IC50 ([3]; read-out: pTau) of 23 nM.
Compound `CC(C)C(=O)Nc1cc(C(=O)Nc2cncc(-c3cccc(F)c3F)c2)ccn1` [Example 194, N-(5-(2,3-difluorophenyl)pyridin-3-yl)-2-isobutyramidoisonicotinamide] has an IC50 [1, 5] of 3.8 nM, an IC50 [2, 4] of 1.4 nM and an IC50 ([3]; read-out: pTau) of 140 nM.
With `CC(C)C(=O)Nc1cc(C(=O)Nc2cncc(-c3ccccc3F)n2)ccn1` [Example 207, N-(6-(2-fluorophenyl)pyrazin-2-yl)-2-isobutyramidoisonicotinamide] the IC50 [1, 5] was 2.5 nM, the IC50 [2, 4] was 1.1 nM and the IC50 ([3]; read-out: pTau) was 160 nM.
In the case of `O=C(Nc1cncc(-c2ccccc2Cl)c1)c1ccnc(NC(=O)C2CCC(F)(F)C2)c1` (stereo not drawn) [Example 237, N-(5-(2-chlorophenyl)pyridin-3-yl)-2-(3,3-difluorocyclopentanecarboxamido)isonicotinamide], the IC50 [1] is reported as 4.1 nM, the IC50 [2, 4] is reported as 0.78 nM and the IC50 ([3]; read-out: pTau) is reported as 94 nM.
With `Cc1ccncc1NC(=O)c1ccnc(NC(=O)C2CC2)c1` [Example 9, 2-(Cyclopropanecarboxamido)-N-(4-methylpyridin-3-yl)isonicotinamide] the IC50 [1] was 30 nM, the IC50 [2, 4] was 22 nM and the IC50 ([3]; read-out: pTau) was 1200 nM.
For `O=C(Nc1cncc(-c2cc(F)ccc2F)c1)c1ccnc(NC(=O)C2CC2)c1` [Example 142, 2-(cyclopropanecarboxamido)-N-(5-(2,5-difluorophenyl)pyridin-3-yl)isonicotinamide], the IC50 [1] was 1.5 nM, the IC50 [2] was 0.76 nM and the IC50 ([3]; read-out: pTau (nM)) was 100 nM.
With `O=C(Nc1cncc(-n2cccn2)c1)c1ccnc(NC(=O)C2CC2)c1` [Example 118, N-(5-(1H-pyrazol-1-yl)pyridin-3-yl)-2-(cyclopropanecarboxamido)isonicotinamide] the IC50 [1, 5] was 1.5 nM, the IC50 [2, 4] was 0.74 nM and the IC50 ([3]; read-out: pTau) was 330 nM.
`O=C(Nc1cncc(-c2ccccc2C(F)(F)F)c1)c1ccnc(NC(=O)C2CC2)c1` [Example 124, 2-(cyclopropanecarboxamido)-N-(5-(2-(trifluoromethyl)phenyl)pyridin-3-yl)isonicotinamide] was tested, and the IC50 [1, 5] was 12 nM, the IC50 [2, 4] was 6.1 nM and the IC50 ([3]; read-out: pTau) was 510 nM.
`O=C(Nc1cnccc1C(O)C(F)(F)F)c1ccnc(NC(=O)C2CC2)c1` (stereo not drawn) [Example 23, 2-(Cyclopropanecarboxamido)-N-(4-(2,2,2-trifluoro-1-hydroxyethyl)pyridin-3-yl)isonicotinamide] was tested, and the IC50 [1] was 5.8 nM, the IC50 [2] was 2.4 nM and the IC50 ([3]; read-out: pTau (nM)) was 48 nM.
`C[C@H]1CN(c2ccncc2NC(=O)c2ccnc(NC(=O)C3CC3)c2)CCO1` (single isomer, unassigned) [Example 78] gave an IC50 [1] of 0.99 nM, an IC50 [2] of 0.35 nM and an IC50 ([3]; read-out: pTau (nM)) of 18 nM.
In the case of `O=C(Nc1nc2cnccc2s1)c1ccnc(NC(=O)C2CC2)c1` [Example 182, 2-(cyclopropanecarboxamido)-N-(thiazolo[4,5-c]pyridin-2-yl)isonicotinamide], the IC50 [1, 5] is reported as 1300 nM, the IC50 [2, 4] is reported as 470 nM and the IC50 ([3]; read-out: pTau) is reported as ≥ 10000 nM.
In the case of `O=C(Nc1cncnc1N1CCC(F)(F)CC1)c1ccnc(NC(=O)C2CC2)c1` [Example 179, 2-(Cyclopropanecarboxamido)-N-(4-(4,4-difluoropiperidin-1-yl)pyrimidin-5-yl)isonicotinamide], the IC50 [1, 5] is reported as 160 nM, the IC50 [2, 4] is reported as 40 nM and the IC50 ([3]; read-out: pTau) is reported as 3000 nM.
`O=C(Nc1cncc(-c2ccncc2)c1)c1ccnc(NC(=O)C2CC2)c1` [Example 106, N-([3,4′-bipyridin]-5-yl)-2-(cyclopropanecarboxamido)isonicotinamide] gave an IC50 [1] of 4.8 nM, an IC50 [2, 4] of 2.5 nM and an IC50 ([3]; read-out: pTau) of 320 nM.
In the case of `N#Cc1ccc(-c2ccncc2NC(=O)c2ccnc(NC(=O)C3CC3)c2)c(F)c1` [Example 85, N-(4-(4-cyano-2-fluorophenyl)pyridin-3-yl)-2-(cyclopropanecarboxamido)isonicotinamide], the IC50 [1, 5] is reported as 2.9 nM, the IC50 [2, 4] is reported as 0.94 nM and the IC50 ([3]; read-out: pTau) is reported as 33 nM.
Compound `COc1cncc(NC(=O)c2ccnc(NC(=O)C3CC3)c2)c1` [Example 13, 2-(Cyclopropanecarboxamido)-N-(5-methoxypyridin-3-yl)isonicotinamide] has an IC50 [1, 5] of 13 nM, an IC50 [2, 4] of 7.3 nM and an IC50 ([3]; read-out: pTau) of 550 nM.
Compound `Cc1ccc(-c2cncc(NC(=O)c3ccnc(NC(=O)C4CC4)c3)c2)cn1` [Example 162, 2-(cyclopropanecarboxamido)-N-(6′-methyl-[3,3′-bipyridin]-5-yl)isonicotinamide] has an IC50 [1] of 2.5 nM, an IC50 [2, 4] of 1.1 nM and an IC50 ([3]; read-out: pTau) of 115 nM.
`O=C(Nc1cncc(-c2ccccc2)c1)c1ccnc(NC(=O)C2CCC(F)(F)C2)c1` (stereo not drawn) [Example 233, 2-(3,3-difluorocyclopentanecarboxamido)-N-(5-phenylpyridin-3-yl)isonicotinamide] showed an IC50 [1, 5] of 1 nM, an IC50 [2, 4] of 0.33 nM and an IC50 ([3]; read-out: pTau) of 340 nM.
Work on `CC(C)C(=O)Nc1cc(C(=O)Nc2cnccc2OCC(F)(F)F)ccn1` [Example 203, 2-Isobutyramido-N-(4-(2,2,2-trifluoroethoxy)pyridin-3-yl)isonicotinamide] yielded an IC50 [1] of 0.72 nM, an IC50 [2, 4] of 0.35 nM and an IC50 ([3]; read-out: pTau) of 70 nM.
`COC(=O)c1cncc(NC(=O)c2ccnc(NC(=O)C3CC3)c2)c1` [Example 101, Methyl 5-(2-(cyclopropanecarboxamido)isonicotinamido)nicotinate] showed an IC50 [1, 5] of 30 nM, an IC50 [2, 4] of 13 nM and an IC50 ([3]; read-out: pTau) of 3100 nM.
`O=C(Nc1cnn(CC(F)(F)F)c1)c1ccnc(NC(=O)C2CC2)c1` [Example 172, 2-(cyclopropanecarboxamido)-N-(1-(2,2,2-trifluoroethyl)-1H-pyrazol-4-yl)isonicotinamide] was tested, and the IC50 [1, 5] was 35 nM, the IC50 [2, 4] was 14 nM and the IC50 ([3]; read-out: pTau) was 700 nM.
`CC(C)C(=O)Nc1cc(C(=O)Nc2cncc(-c3cc(F)ccc3F)c2)ccn1` [Example 192, N-(5-(2,5-difluorophenyl)pyridin-3-yl)-2-isobutyramidoisonicotinamide] showed an IC50 [1] of 4.6 nM, an IC50 [2, 4] of 1.4 nM and an IC50 ([3]; read-out: pTau) of 94 nM.
With `Cc1cncc(NC(=O)c2ccnc(NC(=O)C3CC3)c2)c1` [Example 102, 2-(cyclopropanecarboxamido)-N-(5-methylpyridin-3-yl)isonicotinamide] the IC50 [1] was 9.5 nM, the IC50 [2, 4] was 5.4 nM and the IC50 ([3]; read-out: pTau) was 740 nM.
Compound `Cc1ccc(NC(=O)c2ccnc(NC(=O)C3CC3)c2)cn1` [Example 11, 2-(Cyclopropanecarboxamido)-N-(6-methylpyridin-3-yl)isonicotinamide] has an IC50 [1, 5] of 30 nM, an IC50 [2, 4] of 15 nM and an IC50 ([3]; read-out: pTau) of 2200 nM.
